Measured values reported in ChEMBL document CHEMBL5291721, “A preclinical secondary pharmacology resource illuminates target-adverse drug reaction associations of marketed drugs” (Nat Commun, 2023).

Assays:
[1] = biological target: T1, 5-hydroxytryptamine receptor 1A (Homo sapiens, UniProt P08908); assay type: functional, cell-based
T1 sequence (P08908 whole entry): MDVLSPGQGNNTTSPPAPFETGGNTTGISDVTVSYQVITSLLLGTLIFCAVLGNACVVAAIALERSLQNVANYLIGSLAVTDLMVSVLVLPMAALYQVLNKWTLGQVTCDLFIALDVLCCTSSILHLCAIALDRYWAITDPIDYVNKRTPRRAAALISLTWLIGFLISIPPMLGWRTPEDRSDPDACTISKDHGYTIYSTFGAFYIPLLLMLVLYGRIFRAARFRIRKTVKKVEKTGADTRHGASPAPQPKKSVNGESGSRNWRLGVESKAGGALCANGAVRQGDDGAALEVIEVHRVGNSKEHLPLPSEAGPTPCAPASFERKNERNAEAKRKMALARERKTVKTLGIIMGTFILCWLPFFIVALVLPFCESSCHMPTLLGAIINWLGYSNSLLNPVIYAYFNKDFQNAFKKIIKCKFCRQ

[2] = biological target: T2, Cholecystokinin receptor type A (Homo sapiens, UniProt P32238)
T2 sequence (P32238 whole entry): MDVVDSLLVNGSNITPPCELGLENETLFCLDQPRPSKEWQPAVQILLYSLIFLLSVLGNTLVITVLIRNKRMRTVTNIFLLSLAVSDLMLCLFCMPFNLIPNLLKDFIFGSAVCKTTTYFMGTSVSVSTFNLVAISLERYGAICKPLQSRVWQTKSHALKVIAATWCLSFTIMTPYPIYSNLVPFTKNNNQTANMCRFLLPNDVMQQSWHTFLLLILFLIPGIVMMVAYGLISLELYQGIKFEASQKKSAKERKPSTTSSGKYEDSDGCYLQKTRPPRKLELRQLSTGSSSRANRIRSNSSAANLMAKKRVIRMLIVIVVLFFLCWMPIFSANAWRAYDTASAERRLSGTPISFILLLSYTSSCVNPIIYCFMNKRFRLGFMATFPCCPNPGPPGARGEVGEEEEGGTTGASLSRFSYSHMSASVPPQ

Motilin receptor = Motilin receptor (Homo sapiens, UniProt O43193)
[3] = biological target: 5-hydroxytryptamine receptor 2B (Homo sapiens, UniProt P41595); assay type: functional, cell-based
[4] = biological target: T3, Muscarinic acetylcholine receptor M2 (Homo sapiens, UniProt P08172); assay type: functional, cell-based
T3 sequence (P08172 whole entry): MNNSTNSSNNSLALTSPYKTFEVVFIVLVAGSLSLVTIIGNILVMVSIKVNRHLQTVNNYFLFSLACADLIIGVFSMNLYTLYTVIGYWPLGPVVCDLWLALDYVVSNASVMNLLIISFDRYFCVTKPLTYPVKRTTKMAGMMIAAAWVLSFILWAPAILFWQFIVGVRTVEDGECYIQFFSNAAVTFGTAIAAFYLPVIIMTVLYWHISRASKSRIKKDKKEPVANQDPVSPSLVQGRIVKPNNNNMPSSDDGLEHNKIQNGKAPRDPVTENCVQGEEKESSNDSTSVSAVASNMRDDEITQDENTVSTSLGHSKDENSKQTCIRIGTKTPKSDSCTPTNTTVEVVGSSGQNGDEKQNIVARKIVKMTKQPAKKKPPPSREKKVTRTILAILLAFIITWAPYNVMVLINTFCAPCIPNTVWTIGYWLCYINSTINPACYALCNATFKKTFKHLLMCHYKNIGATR

[5] = biological target: Beta-2 adrenergic receptor (Homo sapiens, UniProt P07550)
Further: assay procedure not described here.

Sequence of Motilin receptor (O43193 whole entry): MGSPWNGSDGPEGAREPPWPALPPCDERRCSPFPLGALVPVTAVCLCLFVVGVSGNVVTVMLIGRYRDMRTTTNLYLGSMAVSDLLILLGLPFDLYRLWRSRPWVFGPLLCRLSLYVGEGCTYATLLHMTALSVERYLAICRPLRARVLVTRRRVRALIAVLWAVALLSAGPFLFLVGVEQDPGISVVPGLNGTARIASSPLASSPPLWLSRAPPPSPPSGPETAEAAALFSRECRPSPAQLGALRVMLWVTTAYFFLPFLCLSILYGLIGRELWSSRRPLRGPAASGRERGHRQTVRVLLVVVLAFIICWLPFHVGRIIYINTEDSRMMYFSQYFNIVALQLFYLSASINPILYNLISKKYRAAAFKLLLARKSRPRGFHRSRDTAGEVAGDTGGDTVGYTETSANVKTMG
Sequence of 5-hydroxytryptamine receptor 2B (P41595 whole entry): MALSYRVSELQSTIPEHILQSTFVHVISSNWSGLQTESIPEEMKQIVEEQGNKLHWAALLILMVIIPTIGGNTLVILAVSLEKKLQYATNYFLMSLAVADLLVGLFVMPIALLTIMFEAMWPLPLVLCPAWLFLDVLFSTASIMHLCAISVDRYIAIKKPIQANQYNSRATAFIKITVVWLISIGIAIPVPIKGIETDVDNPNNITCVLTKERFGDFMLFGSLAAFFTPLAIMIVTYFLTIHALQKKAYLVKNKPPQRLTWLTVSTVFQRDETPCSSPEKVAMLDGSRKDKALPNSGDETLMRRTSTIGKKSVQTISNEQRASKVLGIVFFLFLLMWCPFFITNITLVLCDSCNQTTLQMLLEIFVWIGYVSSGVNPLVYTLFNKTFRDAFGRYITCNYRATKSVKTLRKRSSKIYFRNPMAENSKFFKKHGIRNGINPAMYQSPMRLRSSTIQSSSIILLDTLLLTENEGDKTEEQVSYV
Sequence of Beta-2 adrenergic receptor (P07550 whole entry): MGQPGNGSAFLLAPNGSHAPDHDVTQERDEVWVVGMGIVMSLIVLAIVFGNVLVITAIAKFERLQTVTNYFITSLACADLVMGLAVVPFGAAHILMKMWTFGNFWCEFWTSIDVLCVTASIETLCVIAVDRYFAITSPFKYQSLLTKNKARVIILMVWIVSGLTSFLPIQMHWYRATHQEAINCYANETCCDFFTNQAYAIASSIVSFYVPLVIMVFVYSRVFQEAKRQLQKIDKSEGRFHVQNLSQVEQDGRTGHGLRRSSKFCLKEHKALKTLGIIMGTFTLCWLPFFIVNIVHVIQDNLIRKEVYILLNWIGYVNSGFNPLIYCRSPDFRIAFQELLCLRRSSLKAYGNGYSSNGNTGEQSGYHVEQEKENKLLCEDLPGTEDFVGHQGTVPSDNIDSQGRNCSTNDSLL

Row | SMILES | AC50 [1] | AC50 [2] | AC50 (Motilin receptor) | AC50 [3] | AC50 [4] | AC50 [5]
1 | CO/N=C(\C(=O)N[C@@H]1C(=O)N2C(C(=O)[O-])=C(C[N+]3(C)CCCC3)CS[C@H]12)c1csc(N)n1 | > 300 µM | > 300 µM | > 300 µM | > 300 µM | > 300 µM | > 30 µM
2 | COC(=O)N[C@H](C(=O)N1CCC[C@H]1c1nc(-c2ccc(-c3ccc(-c4c[nH]c([C@@H]5CCCN5C(=O)[C@@H](NC(=O)OC)C(C)C)n4)cc3)cc2)c[nH]1)C(C)C | > 30 µM | > 30 µM | > 30 µM | > 30 µM | > 30 µM | > 30 µM
3 | CCOC(=O)[C@H](CCc1ccccc1)N[C@@H](C)C(=O)N1CCC[C@H]1C(=O)O | > 10 µM | > 30 µM | > 10 µM | > 10 µM | > 10 µM | > 10 µM
4 | CC(=O)c1ccc2c(c1)N(CCCN1CCN(CCO)CC1)c1ccccc1S2 [ACETOPHENAZINE] | > 30 µM | > 30 µM | 27 µM | > 30 µM | > 30 µM | –
5 | CC(N)Cc1ccccc1 (stereo unspecified) [AMPHETAMINE] | > 30 µM | > 30 µM | > 30 µM | > 30 µM | > 30 µM | –
6 | COC(=O)N[C@H](C(=O)N[C@@H](Cc1ccccc1)[C@@H](O)CN(Cc1ccc(-c2ccccn2)cc1)NC(=O)[C@@H](NC(=O)OC)C(C)(C)C)C(C)(C)C [ATAZANAVIR] | > 10 µM | 17.6 µM | 6.4 µM | > 10 µM | > 10 µM | > 10 µM
7 | CN1CCCC(n2nc(Cc3ccc(Cl)cc3)c3ccccc3c2=O)CC1 (stereo unspecified) [AZELASTINE] | > 30 µM | > 30 µM | > 30 µM | – | – | –
8 | CC(C)NCC(O)COc1ccc(COCCOC(C)C)cc1 (stereo unspecified) [BISOPROLOL] | > 10 µM | > 30 µM | > 10 µM | > 10 µM | > 10 µM | –
9 | N[C@@H](C(=O)N[C@@H]1C(=O)N2C(C(=O)O)=C(Cl)CS[C@H]12)c1ccccc1 [CEFACLOR ANHYDROUS] | > 30 µM | > 30 µM | > 30 µM | > 30 µM | > 30 µM | –
10 | CCC[C@@H]1C[C@@H](C(=O)N[C@@H]([C@H]2O[C@H](SC)[C@H](O)[C@@H](O)[C@H]2O)[C@H](C)Cl)N(C)C1 [CLINDAMYCIN] | > 10 µM | > 30 µM | > 10 µM | > 10 µM | > 10 µM | > 10 µM
11 | CC(=O)OCC(=O)[C@@]1(O)CC[C@H]2[C@@H]3CCC4=CC(=O)CC[C@]4(C)[C@H]3C(=O)C[C@@]21C [CORTISONE ACETATE] | > 30 µM | – | – | > 30 µM | – | –
12 | O=C(O)c1cc(-c2ccc(F)cc2F)ccc1O [DIFLUNISAL] | > 10 µM | > 10 µM | > 10 µM | > 10 µM | > 10 µM | > 10 µM
13 | COC(=O)[C@@H]1CC2=CC(=O)CC[C@]2(C)[C@@]23O[C@@H]2C[C@@]2(C)[C@@H](CC[C@@]24CCC(=O)O4)[C@H]13 [EPLERENONE] | > 30 µM | > 30 µM | > 30 µM | > 30 µM | > 30 µM | > 10 µM
14 | NC(N)=Nc1nc(CSCCC(N)=NS(N)(=O)=O)cs1 [FAMOTIDINE] | > 10 µM | > 30 µM | > 10 µM | > 10 µM | > 10 µM | > 10 µM
15 | C[C@@H]1O[C@@H]1P(=O)(O)O [FOSFOMYCIN] | > 10 µM | > 10 µM | > 10 µM | > 10 µM | > 10 µM | > 10 µM
16 | COc1ccc2c(c1)C(=O)N(CCc1ccc(S(=O)(=O)NC(=O)NC3CCCCC3)cc1)C(=O)C2(C)C [GLIQUIDONE] | > 30 µM | > 30 µM | > 30 µM | > 30 µM | > 30 µM | > 30 µM
17 | NS(=O)(=O)c1cc2c(cc1Cl)NCNS2(=O)=O [HYDROCHLOROTHIAZIDE] | > 10 µM | > 30 µM | > 10 µM | > 10 µM | > 10 µM | > 10 µM
